The NIST ThermoML archive (doi:10.1016/j.jct.2016.07.001)
± gives the expanded uncertainty stated by the source.

Tests used:
[1] = Crystal; DTA
[2] = Molar enthalpy of transition or fusion; settings: Crystal; DSC

O=S(=O)(c1ccc(O)cc1)c1ccccc1O [2,4'-dihydroxydiphenyl sulfone]
Normal melting temperature [1]: 182.20 ± 1.1 °C | Molar enthalpy of transition or fusion [2]: 42.8 ± 1.1 kJ/mol
